Results reported in patent US20170056380A1, “Systems, Methods, Techniques, and Compounds in Research and Treatment of Portal Hypertension and other Conditions” (priority 2014, published 2017).
“Also recorded” adds a separate entry of the source.

Assays:
protein kinase G (PKG) = test: Phospho-VASP immunoblotting for PKG activity in stellate cells alone or cocultured with sinusoidal endothelial cells; format: cell-based, rat
Method: (§1) For coculture experiments, freshly isolated stellate cells and freshly isolated sinusoidal endothelial cells were isolated separately and mixed together on collagen-coated plates and cultured for 5 days. Sinusoidal endothelial cells were plated at a density of 200,000 cells/cm2, and stellate cells were at a density of 65,000 cells/cm2.
(§2) Immunoblotting, Immunoblotting was performed by using specified primary antibodies, including anti-eNOS antibody (1:1,000; BD Transduction Laboratories, San Jose, Calif.), anti-phospho-eNOS-Ser^1177 (1:1,000; BD Transduction Laboratories or Cell Signaling Technology), anti-phospho-Akt, anti-Akt (Cell Signaling Technology, Beverly, Mass.), and horseradish peroxidase-conjugated secondary antibody. Specific signals were visualized using enhanced chemiluminescence as per the manufacturer's instructions and were scanned and quantitated with standard software.

[1] = test system: bile duct-ligated (BDL) mice; test: Portal pressure measurement in bile duct-ligated and sham-operated mice; format: in vivo, BALB/c mice; details: 5 mg·kg−1·day−1 by gavage for 10 days
Method: Animal model of liver injury and portal hypedension. Liver injury and portal hypertension were induced by performing bile duct ligation in 450- to 500-gram male retired breeder Sprague-Dawley rats as described in Liu and 20- to 25-gram male BALB/c mice. Briefly, bile duct ligation was performed by surgical isolation and ligation of the common bile duct. This model creates a portal-based fibrogenic response and portal hypertension 10-14 days after surgery (Liu). For study of injured sinusoidal endothelial cells, we used the rat model of bile duct ligation (10-14 days postsurgery); for in vivo study (primarily to conserve the use of active compound), we used the mouse model of bile duct ligation (examining portal pressure 4 wk postsurgery). In sham-operated rats or mice, laparotomy without isolation and section of the bile duct was performed. Studies were approved by the local Institutional Animal Care and Use Committees. Portal pressure measurement. Portal hypertension was induced in male BALB/c mice by bile duct ligation as above. Cicletanine (5 mg·kg^−1·day^−1) or vehicle was given by gavage as a single daily dose for 10 days before portal pressure measurement as described in Liue. […] A calibrated low-pressure transducer (Digi-Med, Louisville, Ky.) was connected to the portal vein catheter, and portal pressure was recorded continuously using the Digi-Med Integrator 200 System (Digi-bled).

Erk1/2 = test: Erk phosphorylation by immunoblotting in sinusoidal endothelial cells; format: cell-based, rat; details: 2 h
Method: Cell isolation and culture. Sinusoidal endothelial cells were isolated from male Sprague-Dawley rats (450-500 g) (Harlan, Indianapolis, Ind.). In brief, after in situ perfusion of the liver with 20 mg/100 mg pronase (Roche Molecular Biochemicals, Indianapolis, Ind.), followed by collagenase (Worthington Biochemical, Lakewood, N.J.), dispersed cell suspensions were removed from a layered discontinuous density gradient of 8.2 and 15.6% Accudenz (Accurate Chemical and Scientific, Westbury, N.Y.), further purified by centrifugal elutriation (18 ml/min flow), and were grown in medium containing 20% serum (10% horse/calf). The purity of endothelial cells was documented by their uptake of fluorescently labeled di-l-acetoacetylated low-density lipoprotein as described (21). […]
as §2, with “software. […]” for “software.”

eNOS = eNOS phosphorylation (Ser1177) and total eNOS by immunoblotting in sinusoidal endothelial cells; format: cell-based, rat
Method: Cell isolation and culture. Sinusoidal endothelial cells were isolated from male Sprague-Dawley rats (450-500 g) (Harlan, Indianapolis, Ind.). In brief, after in situ perfusion of the liver with 20 mg/100 mg pronase (Roche Molecular Biochemicals, Indianapolis, Ind.), followed by collagenase (Worthington Biochemical, Lakewood, N.J.), dispersed cell suspensions were removed from a layered discontinuous density gradient of 8.2 and 15.6% Accudenz (Accurate Chemical and Scientific, Westbury, N.Y.), further purified by centrifugal elutriation (18 ml/min flow), and were grown in medium containing 20% serum (10% horse/calf). The purity of endothelial cells was documented by their uptake of fluorescently labeled di-l-acetoacetylated low-density lipoprotein as described (21). Only primary sinusoidal endothelial isolates of >95% purity were used for study. Experiments were performed with cells frorrr a minimum three different isolations (for all experiments).
as §2
Animal model of liver injury and portal hypedension. Liver injury and portal hypertension were induced by performing bile duct ligation in 450- to 500-gram male retired breeder Sprague-Dawley rats as described in Liu and 20- to 25-gram male BALB/c mice. Briefly, bile duct ligation was performed by surgical isolation and ligation of the common bile duct. This model creates a portal-based fibrogenic response and portal hypertension 10-14 days after surgery (Liu). For study of injured sinusoidal endothelial cells, we used the rat model of bile duct ligation (10-14 days postsurgery); for in vivo study (primarily to conserve the use of active compound), we used the mouse model of bile duct ligation (examining portal pressure 4 wk postsurgery). In sham-operated rats or mice, laparotomy without isolation and section of the bile duct was performed. Studies were approved by the local Institutional Animal Care and Use Committees. Portal pressure measurement. Portal hypertension was induced in male BALB/c mice by bile duct ligation as above. Cicletanine (5 mg·kg^−1·day^−1) or vehicle was given by gavage as a single daily dose for 10 days before portal pressure measurement as described in Liue. In brief, mice were anesthetized, and an intravenous catheter (Becton Dickinson Vascular Access, Sandy, Utah) was introduced in the portal vein and secured with a silk tie. A calibrated low-pressure transducer (Digi-Med, Louisville, Ky.) was connected to the portal vein catheter, and portal pressure was recorded continuously using the Digi-Med Integrator 200 System (Digi-bled).

hepatic stellate cells = test: Collagen lattice assay (ET-1 stimulated stellate cell contraction, coculture with sinusoidal endothelial cells); format: cell-based, rat; details: 50 or 100 nM 2 h, then ET-1 10 nM; coculture on collagen lattices
Method: as §1
Collagen lattice assay. Contraction of hepatic stellate cells was performed as previously described with minor modifications (25). Briefly, individual wells of a 24-well culture dish were incubated with PBS containing 1% BSA (500 μl/well) for 1 h at 37° C. and then washed two times with PBS and allowed to air dry. Collagen gels were prepared by mixing 60% type I tail collagen (Upstate Laboratories), 10% 10×MEM (GIBCO), 10% 0.2 HEPES, and 20% DMEM (GIBCO) to make a final concentration of collagen of 2.4 mg/ml. The solution was added to the culture wells and incubated for 1 h at 37° C., and hepatic stellate cells and sinusoidal endothelial cells were isolated separately from normal rat livers and cocultured (each at a density of 100,000 cells/lattice) on collagen lattices for 5 days. Cells were changed to serum-free medium overnight, then exposed to cicletanine, and then stimulated with endothelin-1 (ET-1, 10 nM). Collagen lattices were released from their substrata, and gel contraction was measured from 0 to 30 min.

[2] = cicletanine 100 nM, normal sinusoidal endothelial cells

Q: With `Cc1ncc2c(c1O)COC2c1ccc(Cl)cc1` (stereo not drawn) [cicletanine, 3-(4-chlorophenyl)-1,3-dihydro-7-hydroxy-6-methylfuro-(3,4-c) pyridine] as the molecule, how does the VASP phosphorylation (protein kinase G (PKG); stellate cells alone) read?
A: did not alter

Q: And the VASP phosphorylation (protein kinase G (PKG); stellate cells cocultured with sinusoidal endothelial cells)?
A: stimulated

Q: And the portal pressure ([1]; BDL mice)?
A: significantly reduced

Q: And the portal pressure ([1]; sham-operated mice)?
A: Slight and nonsignificant decreases

Q: What about the “phosphorylation of Erk” value (Erk1/2; 50 or 100 nM, normal sinusoidal endothelial cells) of the same molecule?
A: increased in a dose-dependent manner; also recorded: robustly induced

Q: And the Erk1/2 phosphorylation (Erk1/2; sinusoidal endothelial cells injured by bile duct ligation)?
A: increased

Q: What about the “phosphorylation of eNOS, dose dependence” value (eNOS; 50 or 100 nM, 2 h, normal sinusoidal endothelial cells) of the same molecule?
A: increased in a dose-dependent manner

Q: And the “time after exposure of greatest eNOS phosphorylation” value (eNOS; cicletanine 100 nM, 0-4 h)?
A: 1 h

Q: And the “eNOS phosphorylation at Ser1177” value (eNOS; [2])?
A: stimulated; also recorded: increased

Q: What about the “total eNOS expression” value (eNOS; [2]) of the same molecule?
A: unchanged

Q: And the eNOS phosphorylation (eNOS; sinusoidal endothelial cells injured by bile duct ligation, 2 h)?
A: restored eNOS phosphorylation to above basal levels

Q: And the stellate cell contraction (hepatic stellate cells)?
A: inhibited stellate cell contraction in a dose-dependent manner
